Reference: patent publication US20260209152A1, “Substituted Hydroxystilbene Compounds and Derivatives, Synthesis and Uses Thereof” (Kynan Duke IP, LLC, priority 2019, published 2026)
Where two headings read alike, the source gives them in different places.

What was measured:
[1] = system: Pancreatic CAPAN-1; test: CellTiter Glo cell viability assay; type: cell-based; conditions: Homo sapiens; Capan-1/HTB-79; 11 dilutions 3-0.00001 μM
[2] = system: Kidney Caki-1; test: CellTiter Glo cell viability assay; type: cell-based, human; conditions: for IC50: Homo sapiens
Protocol: (§1) 1.7*10^3 cells/well were seeded in quadruplicates in 96-well plate after plating. Drugs were added at 5 μM and 2-fold dilutions over 18 concentrations (0.000038146-5 […] range) to generate a dose-response curve. Cell growth was assessed on day 1, 3 and 5 after drug treatments using the CellTiter Glo Luminescence Cell Viability Assay (Promega) according to manufacturer's protocol. Thermo Scientific Varioskan LUX Multimode Microplate instrument was used for plate reading. Data are expressed as mean luminescence (arbitrary units) ±S.D.
(§2) Cell Viability Assays were employed to determine the concentration of Compound 1 (KYN-001) and analogues where the response is reduced by half. For each treatment of cancer cells, 1, 2, 5, 10 and 20 μM solutions of compounds were applied. GraphPad Prism 7 software was used to fit dose response curves. Relative Luminescence Units were plotted against the log values of the doses used and the nonlinear regression model was used for data analysis.
(§3) The protocol for cell proliferation was optimized for Compound 8 (KYN-119) to enable a more accurate assessment of its low IC50 value. In this protocol, 18 dosages (2 fold dilutions ranging from 0.000038146 to 5 μM) were applied to cells seeded in 96-well plates, and Luminescence was measured after 1, 3 and 5 days upon treatments.

[3] = system: Lung NCI-H2126; test: CellTiter Glo cell viability assay; type: cell-based, human; conditions: for IC50: Homo sapiens
Protocol: as §1, §2, §3

[4] = system: Bladder UMUC_3; test: CellTiter Glo cell viability assay; type: cell-based, human; conditions: for IC50: Homo sapiens
Protocol: as §1, §2, §3

[5] = system: Tongue UPCI: SCC090; test: CellTiter Glo cell viability assay; type: cell-based, human; conditions: for IC50: Homo sapiens
Protocol: as §1, §2, §3

[6] = system: Bladder SCABER; test: CellTiter Glo cell viability assay; type: cell-based, human; conditions: for IC50: Homo sapiens
Protocol: as §1, §2, §3

[7] = system: Lung NCI-H1573; test: CellTiter Glo cell viability assay; type: cell-based, human; conditions: for IC50: Homo sapiens
Protocol: as §1, §2, §3

[8] = system: Kidney Caki-2; test: CellTiter Glo cell viability assay; type: cell-based, human; conditions: for IC50: Homo sapiens
Protocol: as §1, §2, §3

[9] = system: Osteosarcomas SAOS-2; test: CellTiter Glo cell viability assay; type: cell-based, human; conditions: for IC50: Homo sapiens
Protocol: as §1, §2, §3

[10] = system: Pancreatic BxPC3; test: CellTiter Glo cell viability assay; type: cell-based, human; conditions: for IC50: Homo sapiens
Protocol: as §1, §2, §3

[11] = system: Bladder HT-1197; test: CellTiter Glo cell viability assay; type: cell-based, human; conditions: for IC50: Homo sapiens
Protocol: as §1, §2, §3

[12] = system: Tongue SCC-4; test: CellTiter Glo cell viability assay; type: cell-based, human; conditions: for IC50: Homo sapiens
Protocol: as §1, §2, §3

[13] = system: Pancreatic HPAFII; test: CellTiter Glo cell viability assay; type: cell-based, human; conditions: for IC50: Homo sapiens
Protocol: as §1, §2, §3

[14] = system: Liver SNU-398; test: CellTiter Glo cell viability assay; type: cell-based, human; conditions: for IC50: Homo sapiens
Protocol: as §1, §2, §3

[15] = system: Pharynx DETROIT; test: CellTiter Glo cell viability assay; type: cell-based, human; conditions: for IC50: Homo sapiens
Protocol: as §1, §2, §3

[16] = system: Lung NCI-H1563; test: CellTiter Glo cell viability assay; type: cell-based, human; conditions: for IC50: Homo sapiens
Protocol: as §1, §2, §3

[17] = system: Liver SNU-423; test: CellTiter Glo cell viability assay; type: cell-based, human; conditions: for IC50: Homo sapiens
Protocol: as §1, §2, §3

[18] = system: Pancreatic PANC-1; test: CellTiter Glo cell viability assay; type: cell-based, human; conditions: for IC50: Homo sapiens
Protocol: as §1, §2, §3

[19] = system: GBM patient sample BNB04; test: Ex vivo GBM 3D spheroid drug response (CellTiter-Glo 3D); type: cell-based, human; conditions: Homo sapiens, 96 h, 3D spheroids; 4 days post drug treatment
Source text: This project involves an ex vivo drug response screen for 3 ROKiT Pharma test agents and Temozolomide in 3 previously dissociated and cryopreserved GBM samples.
• 2.1 Three previously processed GBM patient samples were chosen to be used in this study.

[20] = system: Rhabomyosarcoma TE 159.T; test: CellTiter Glo cell viability assay; type: cell-based, human; conditions: for IC50: Homo sapiens
Protocol: as §1, §2, §3

[21] = Caki-1/HTB-46, 11 dilutions 3-0.00001 μM, read-out: IC50
[22] = NCI-H2126/CCL-256, 11 dilutions 3-0.00001 μM, read-out: IC50
[23] = UMUC3, UM-UC-3/CRL-1749, 11 dilutions 3-0.00001 μM, read-out: IC50
[24] = UPCI: SCC090/CRL-3239, 11 dilutions 3-0.00001 μM, read-out: IC50
[25] = SCaBER/HTB-3, 11 dilutions 3-0.00001 μM, read-out: IC50
[26] = NCI-H1573/CRL-5877, 11 dilutions 3-0.00001 μM, read-out: IC50
[27] = Caki-2/HTB-47, 11 dilutions 3-0.00001 μM, read-out: IC50
[28] = Saos-2/HTB-85, 11 dilutions 3-0.00001 μM, read-out: IC50
[29] = BxPC-3/CRL-1687, 11 dilutions 3-0.00001 μM, read-out: IC50
[30] = HT1197, HT-1197/CRL-1473, 11 dilutions 3-0.00001 μM, read-out: IC50
[31] = SCC-4/CRL-1624, 11 dilutions 3-0.00001 μM, read-out: IC50
[32] = HPAF-II/CRL-1997, 11 dilutions 3-0.00001 μM, read-out: IC50
[33] = SNU-398/CRL-2233, 11 dilutions 3-0.00001 μM, read-out: IC50
[34] = Detroit 562/CCL-138, 11 dilutions 3-0.00001 μM, read-out: IC50
[35] = NCI-H1563/CRL-5875, 11 dilutions 3-0.00001 μM, read-out: IC50
[36] = SNU-423/CRL-2238, 11 dilutions 3-0.00001 μM, read-out: IC50
[37] = PANC-1/CRL-1469, 11 dilutions 3-0.00001 μM, read-out: IC50
[38] = IC50 of 1 [KYN-001] vs 8 [KYN-119], 3 Days
[39] = 72 h, 3 Days of treatment, 18 2-fold dilutions 5-0.00003 μM, read-out: Average IC50

CCOc1cc(O)cc(/C=C/c2ccc(NC=O)c(OC)c2)c1CC=C(C)C [Compound 28, (E)-N-(4-(3-Ethoxy-5-hydroxy-2-(3-methylbut-2-en-1-yl)styryl)-2-methoxyphenyl)formamide]
IC50 [1]: 735 nM
IC50 [2, 21]: 7.2 nM
IC50 [3, 22]: 10.7 nM
IC50 [4, 23]: 21.3 nM
IC50 [5, 24]: 56.1 nM
IC50 [6, 25]: 6 nM
IC50 [7, 26]: 21.2 nM
IC50 [8, 27]: 69.8 nM
IC50 [9, 28]: 23.3 nM
IC50 [10, 29]: 175 nM
IC50 [11, 30]: 12.2 nM
IC50 [12, 31]: 3.1 nM
IC50 [13, 32]: 111 nM
IC50 [14, 33]: 32.7 nM
IC50 [15, 34]: 11.4 nM
IC50 [16, 35]: 15.9 nM
IC50 [17, 36]: 27.5 nM
IC50 [18, 37]: 17.8 nM

COc1cc(/C=C/c2cc(O)cc(OC)c2CC=C(C)C)ccc1NC=O [Compound 27, (E)-N-(4-(5-hydroxy-3-methoxy-2-(3-methylbut-2-en-1-yl)styryl)-2-methoxyphenyl)formamide]
IC50 [1]: 792 nM
IC50 [19]: 4310 nM
IC50 [2, 21]: 15.4 nM
IC50 [3, 22]: 31 nM
IC50 [4, 23]: 30.2 nM
IC50 [5, 24]: 20 nM
IC50 [6, 25]: 10.9 nM
IC50 [7, 26]: 48 nM
IC50 [8, 27]: 1550 nM
IC50 [9, 28]: 42.4 nM
IC50 ([20]; TE 159.T/CRL-7752, 11 dilutions 3-0.00001 μM, read-out: IC50): 31 nM
IC50 [10, 29]: 302 nM
IC50 [11, 30]: 17.1 nM
IC50 [12, 31]: 11.4 nM
IC50 [13, 32]: 102 nM
IC50 [14, 33]: 54 nM
IC50 [15, 34]: 20.3 nM
IC50 [16, 35]: 59.8 nM
IC50 [17, 36]: 53.5 nM
IC50 [18, 37]: 28.8 nM

CCOc1cc(O)cc(/C=C/c2ccc(O)c(O)c2)c1CC=C(C)C [Compound 20, (E)-4-(3-Ethoxy-5-hydroxy-2-(3-methylbut-2-en-1-yl)styryl)benzene-1,2-diol]
IC50 [1]: 2240 nM
IC50 [19]: 23700 nM
IC50 [2, 21]: 96.3 nM
IC50 [3, 22]: 97 nM
IC50 [4, 23]: 126 nM
IC50 [5, 24]: 47.8 nM
IC50 [6, 25]: 53.7 nM
IC50 [7, 26]: 55.8 nM
IC50 [8, 27]: 302 nM
IC50 [9, 28]: 129 nM
IC50 [10, 29]: 1410 nM
IC50 [11, 30]: 61.7 nM
IC50 [12, 31]: 31.3 nM
IC50 [13, 32]: 638 nM
IC50 [14, 33]: 110 nM
IC50 [15, 34]: 122 nM
IC50 [16, 35]: 74.1 nM
IC50 [17, 36]: 119 nM
IC50 [18, 37]: 41.6 nM

CCOc1cc(O)cc(/C=C/c2ccc(O)c(OC)c2)c1CC=C(C)C [Compound 8, (E)-3-Ethoxy-5-(4-hydroxy-3-methoxystyryl)-4-(3-methylbut-2-en-1-yl)phenol]
IC50 [1]: 2320 nM
IC50 ([2]; CAKI-1, 72 h, 3 Days of treatment, 18 2-fold dilutions 5-0.00003 μM, read-out: Average IC50): 8.9 nM
IC50 [2, 21]: 27.9 nM
Fold IC50 [2, 38]: 12
IC50 ([3]; NCI-H2126, 72 h, 3 Days of treatment, 18 2-fold dilutions 5-0.00003 μM, read-out: Average IC50): 1.73 nM
IC50 [3, 22]: 33.1 nM
Fold IC50 [3, 38]: 44
IC50 ([4]; UMUC3, 72 h, 3 Days of treatment, 18 2-fold dilutions 5-0.00003 μM, read-out: Average IC50): 5.48 nM
IC50 [4, 23]: 54.8 nM
Fold IC50 [4, 38]: 5.7
IC50 [5, 39]: 26 nM
IC50 [5, 24]: 0.5 nM
Fold IC50 [5, 38]: 3.5
IC50 ([6]; SCaBER, 72 h, 3 Days of treatment, 18 2-fold dilutions 5-0.00003 μM, read-out: Average IC50): 10.1 nM
IC50 [6, 25]: 27.3 nM
Fold IC50 [6, 38]: 3.3
IC50 ([7]; NCI-H1573, 72 h, 3 Days of treatment, 18 2-fold dilutions 5-0.00003 μM, read-out: Average IC50): 20.5 nM
IC50 [7, 26]: 33.5 nM
Fold IC50 [7, 38]: 11
IC50 ([8]; CAKI-2, 72 h, 3 Days of treatment, 18 2-fold dilutions 5-0.00003 μM, read-out: Average IC50): 281 nM
IC50 [8, 27]: 524 nM
Fold IC50 [8, 38]: 4.0
IC50 ([9]; SAOS-2, 72 h, 3 Days of treatment, 18 2-fold dilutions 5-0.00003 μM, read-out: Average IC50): 15.4 nM
IC50 [9, 28]: 79.1 nM
Fold IC50 [9, 38]: 7.2
IC50 [20, 39]: 19.6 nM
Fold IC50 [20, 38]: 7.5
IC50 ([10]; BXPC-3, 72 h, 3 Days of treatment, 18 2-fold dilutions 5-0.00003 μM, read-out: Average IC50): 355 nM
IC50 [10, 29]: 387 nM
Fold IC50 [10, 38]: 3.0
IC50 ([11]; HT1197, 72 h, 3 Days of treatment, 18 2-fold dilutions 5-0.00003 μM, read-out: Average IC50): 11.5 nM
IC50 [11, 30]: 48.5 nM
Fold IC50 [11, 38]: 22
IC50 ([12]; SCC-4, 72 h, 3 Days of treatment, 18 2-fold dilutions 5-0.00003 μM, read-out: Average IC50): 23.9 nM
IC50 [12, 31]: 23.2 nM
Fold IC50 [12, 38]: 4.2
IC50 ([13]; HPAF-II, 72 h, 3 Days of treatment, 18 2-fold dilutions 5-0.00003 μM, read-out: Average IC50): 403 nM
IC50 [13, 32]: 242 nM
Fold IC50 [13, 38]: 2.7
IC50 ([14]; SNU-398, 72 h, 3 Days of treatment, 18 2-fold dilutions 5-0.00003 μM, read-out: Average IC50): 8.15 nM
IC50 [14, 33]: 74.6 nM
Fold IC50 [14, 38]: 5.3
IC50 [15, 39]: 438 nM
IC50 [15, 34]: 76.6 nM
Fold IC50 [15, 38]: 2.7
IC50 ([16]; NCI-H1563, 72 h, 3 Days of treatment, 18 2-fold dilutions 5-0.00003 μM, read-out: Average IC50): 19.5 nM
IC50 [16, 35]: 54.5 nM
Fold IC50 [16, 38]: 23
IC50 ([17]; SNU-423, 72 h, 3 Days of treatment, 18 2-fold dilutions 5-0.00003 μM, read-out: Average IC50): 6.23 nM
IC50 [17, 36]: 79.7 nM
Fold IC50 [17, 38]: 5.4
IC50 ([18]; PANC-1, 72 h, 3 Days of treatment, 18 2-fold dilutions 5-0.00003 μM, read-out: Average IC50): 11.5 nM
IC50 [18, 37]: 31.4 nM
Fold IC50 [18, 38]: 9.3
